Results taken from PubChem BioAssay (NCI).
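Exposure lasted 48 hours, with cells grown in 96-well plates and compounds tested at five concentrations. GI50 marks 50% less growth. TGI is the concentration that stops growth completely.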

Key:
Assay in all cases: DTP human tumour cell line panel, 48 h
HOP-62 NSCLC = tested on: HOP-62 NSCLC
RPMI-8226 leukemia = tested on: RPMI-8226 leukemia
UACC-62 melanoma = tested on: UACC-62 melanoma
NCI-H460 lung = tested on: NCI-H460 lung
EKVX NSCLC = tested on: EKVX NSCLC
PC-3 prostate = tested on: PC-3 prostate
OVCAR-5 ovarian = tested on: OVCAR-5 ovarian
SN12C renal = tested on: SN12C renal
IGROV1 ovarian = tested on: IGROV1 ovarian
SF-268 CNS = tested on: SF-268 CNS
OVCAR-4 ovarian = tested on: OVCAR-4 ovarian
M14 melanoma = tested on: M14 melanoma
HCC-2998 colon = tested on: HCC-2998 colon
786-0 renal = tested on: 786-0 renal
LOX IMVI melanoma = tested on: LOX IMVI melanoma
CCRF-CEM leukemia = tested on: CCRF-CEM leukemia
HCT-116 colon = tested on: HCT-116 colon
SR leukemia = tested on: SR leukemia
COLO 205 colon = tested on: COLO 205 colon
HCT-15 colon = tested on: HCT-15 colon
SK-MEL-28 melanoma = tested on: SK-MEL-28 melanoma
CAKI-1 renal = tested on: CAKI-1 renal
NCI/ADR-RES ovarian = tested on: NCI/ADR-RES ovarian
HT29 colon = tested on: HT29 colon
A498 renal = tested on: A498 renal
SK-MEL-5 melanoma = tested on: SK-MEL-5 melanoma
NCI-H23 lung = tested on: NCI-H23 lung
MDA-MB-435 = tested on: MDA-MB-435
MDA-MB-468 breast = tested on: MDA-MB-468 breast
ACHN renal = tested on: ACHN renal
SW-620 colon = tested on: SW-620 colon
OVCAR-3 ovarian = tested on: OVCAR-3 ovarian
BT-549 breast = tested on: BT-549 breast
SF-539 CNS = tested on: SF-539 CNS
SF-295 CNS = tested on: SF-295 CNS
MALME-3M melanoma = tested on: MALME-3M melanoma
T-47D breast = tested on: T-47D breast
MCF7 breast = tested on: MCF7 breast
K-562 leukemia = tested on: K-562 leukemia
NCI-H522 lung = tested on: NCI-H522 lung
MOLT-4 leukemia = tested on: MOLT-4 leukemia
HL-60(TB) leukemia = tested on: HL-60(TB) leukemia
SK-OV-3 ovarian = tested on: SK-OV-3 ovarian
HS 578T breast = tested on: HS 578T breast
UACC-257 melanoma = tested on: UACC-257 melanoma
KM12 colon = tested on: KM12 colon
SNB-19 CNS = tested on: SNB-19 CNS
HOP-92 NSCLC = tested on: HOP-92 NSCLC
DU-145 prostate = tested on: DU-145 prostate
RXF 393 renal = tested on: RXF 393 renal
U251 CNS = tested on: U251 CNS
NCI-H226 lung = tested on: NCI-H226 lung
A549 NSCLC = tested on: A549 NSCLC
TK-10 renal = tested on: TK-10 renal
OVCAR-8 ovarian = tested on: OVCAR-8 ovarian
UO-31 renal = tested on: UO-31 renal
SNB-75 CNS = tested on: SNB-75 CNS
MDA-MB-231 breast = tested on: MDA-MB-231 breast
SK-MEL-2 melanoma = tested on: SK-MEL-2 melanoma

## O=C(Nc1nc2ccc([N+](=O)[O-])cc2s1)Nc1cc(Cl)ccc1I
HOP-62 NSCLC
  GI50: 9.29 µM
  TGI: 21.7 µM
RPMI-8226 leukemia
  GI50: 2.24 µM
  TGI: 5.66 µM
UACC-62 melanoma
  GI50: 4.11 µM
  TGI: 15.4 µM
NCI-H460 lung
  GI50: 4.16 µM
  TGI: 15.7 µM
EKVX NSCLC
  GI50: 3.6 µM
  TGI: 13.6 µM
PC-3 prostate
  GI50: 3.78 µM
  TGI: 13.5 µM
OVCAR-5 ovarian
  GI50: 11.6 µM
  TGI: 23.9 µM
SN12C renal
  GI50: 4.06 µM
  TGI: 15.8 µM
IGROV1 ovarian
  GI50: 4.49 µM
  TGI: 15.8 µM
SF-268 CNS
  GI50: 9.35 µM
  TGI: 23.9 µM
OVCAR-4 ovarian
  GI50: 5.28 µM
  TGI: 19.3 µM
M14 melanoma
  GI50: 10 µM
  TGI: 22 µM
HCC-2998 colon
  GI50: 4.7 µM
  TGI: 16.2 µM
786-0 renal
  GI50: 7.32 µM
  TGI: 20.2 µM
LOX IMVI melanoma
  GI50: 5.85 µM
  TGI: 18.1 µM
CCRF-CEM leukemia
  GI50: 3.4 µM
  TGI: 12.4 µM
HCT-116 colon
  GI50: 3.24 µM
  TGI: 12 µM
SR leukemia
  GI50: 3.16 µM
  TGI: 12.4 µM
COLO 205 colon
  GI50: 10.8 µM
  TGI: 22.9 µM
HCT-15 colon
  GI50: 4.04 µM
  TGI: 15.6 µM
SK-MEL-28 melanoma
  GI50: 4.75 µM
  TGI: 16.6 µM
CAKI-1 renal
  GI50: 5.87 µM
  TGI: 19.3 µM
NCI/ADR-RES ovarian
  GI50: 4.85 µM
  TGI: 18.1 µM
HT29 colon
  GI50: 11.4 µM
  TGI: 24.2 µM
A498 renal
  GI50: 4.25 µM
  TGI: 16.1 µM
SK-MEL-5 melanoma
  GI50: 2.7 µM
  TGI: 7.52 µM
NCI-H23 lung
  GI50: 2.78 µM
  TGI: 8.9 µM
MDA-MB-435
  GI50: 6.4 µM
  TGI: 21 µM
MDA-MB-468 breast
  GI50: 3.54 µM
  TGI: 10.6 µM
ACHN renal
  GI50: 5.29 µM
  TGI: 17.4 µM
SW-620 colon
  GI50: 5.46 µM
  TGI: 18.6 µM
OVCAR-3 ovarian
  GI50: 4.29 µM
  TGI: 14.8 µM
BT-549 breast
  GI50: 3.56 µM
  TGI: 14.5 µM
SF-539 CNS
  GI50: 5.09 µM
  TGI: 17 µM
SF-295 CNS
  GI50: 5.56 µM
  TGI: 18.6 µM
MALME-3M melanoma
  GI50: 3.26 µM
  TGI: 13.1 µM
T-47D breast
  GI50: 3.7 µM
  TGI: 14.5 µM
MCF7 breast
  GI50: 3.05 µM
  TGI: 12.1 µM
K-562 leukemia
  GI50: 3.55 µM
  TGI: 13.6 µM
NCI-H522 lung
  GI50: 2.95 µM
  TGI: 10.6 µM
MOLT-4 leukemia
  GI50: 3.43 µM
  TGI: 12 µM
HL-60(TB) leukemia
  GI50: 3.81 µM
  TGI: 16.8 µM
SK-OV-3 ovarian
  GI50: 7.84 µM
  TGI: 20.4 µM
HS 578T breast
  GI50: 4.71 µM
  TGI: 20.8 µM
UACC-257 melanoma
  GI50: 6.8 µM
  TGI: 19.9 µM
KM12 colon
  GI50: 5.29 µM
  TGI: 17.7 µM
SNB-19 CNS
  GI50: 5.5 µM
  TGI: 18.1 µM
HOP-92 NSCLC
  GI50: 2.63 µM
  TGI: 7.46 µM
DU-145 prostate
  GI50: 8.17 µM
  TGI: 20.6 µM
RXF 393 renal
  GI50: 7.38 µM
  TGI: 20.3 µM
U251 CNS
  GI50: 5.36 µM
  TGI: 17.8 µM
NCI-H226 lung
  GI50: 7.18 µM
  TGI: 20.5 µM
A549 NSCLC
  GI50: 9.8 µM
  TGI: 21.6 µM
TK-10 renal
  GI50: 8.2 µM
  TGI: 20.7 µM
OVCAR-8 ovarian
  GI50: 12.9 µM
  TGI: 26.7 µM

## COC(=O)CCn1c(-c2ccc(-n3cc(-c4ccc(O[C@H]5O[C@@H]6OC7(C)CC[C@H]8[C@H](C)CC[C@@H]([C@H]5C)[C@@]68OO7)cc4)nn3)cc2)nc2ccccc21
HOP-62 NSCLC
  GI50: 0.558 µM
  TGI: > 9.25 µM
RPMI-8226 leukemia
  GI50: 0.0427 µM
  TGI: 5.12 µM
UACC-62 melanoma
  GI50: 0.135 µM
  TGI: 1.97 µM
NCI-H460 lung
  GI50: 0.274 µM
  TGI: > 9.25 µM
EKVX NSCLC
  GI50: 0.15 µM
  TGI: > 9.25 µM
PC-3 prostate
  GI50: 0.04 µM
  TGI: > 9.25 µM
OVCAR-5 ovarian
  GI50: 0.134 µM
  TGI: > 9.25 µM
SN12C renal
  GI50: 0.189 µM
  TGI: > 9.25 µM
IGROV1 ovarian
  GI50: 0.257 µM
  TGI: > 9.25 µM
SF-268 CNS
  GI50: 0.242 µM
  TGI: > 9.25 µM
OVCAR-4 ovarian
  GI50: 0.155 µM
  TGI: > 9.25 µM
M14 melanoma
  GI50: 0.36 µM
  TGI: > 9.25 µM
HCC-2998 colon
  GI50: 0.319 µM
  TGI: > 9.25 µM
UO-31 renal
  GI50: 0.194 µM
  TGI: 1.05 µM
SNB-75 CNS
  GI50: 0.257 µM
  TGI: > 9.25 µM
786-0 renal
  GI50: 0.33 µM
  TGI: > 9.25 µM
LOX IMVI melanoma
  GI50: 0.0371 µM
  TGI: 0.158 µM
CCRF-CEM leukemia
  GI50: 0.0517 µM
  TGI: > 9.25 µM
HCT-116 colon
  GI50: 0.0343 µM
  TGI: > 9.25 µM
SR leukemia
  GI50: 0.0402 µM
  TGI: 1.14 µM
COLO 205 colon
  GI50: 0.0685 µM
  TGI: > 9.25 µM
HCT-15 colon
  GI50: 0.0376 µM
  TGI: > 9.25 µM
SK-MEL-28 melanoma
  GI50: 0.148 µM
  TGI: > 9.25 µM
CAKI-1 renal
  GI50: 0.333 µM
  TGI: > 9.25 µM
NCI/ADR-RES ovarian
  GI50: 0.307 µM
  TGI: > 9.25 µM
HT29 colon
  GI50: 0.0753 µM
  TGI: > 9.25 µM
A498 renal
  GI50: 5.4 µM
  TGI: > 9.25 µM
SK-MEL-5 melanoma
  GI50: 0.216 µM
  TGI: 1.13 µM
NCI-H23 lung
  GI50: 0.0655 µM
  TGI: 6.49 µM
MDA-MB-435
  GI50: 0.078 µM
  TGI: > 9.25 µM
MDA-MB-468 breast
  GI50: 0.177 µM
  TGI: 0.588 µM
ACHN renal
  GI50: 0.262 µM
  TGI: 1.36 µM
SW-620 colon
  GI50: 0.0438 µM
  TGI: > 9.25 µM
OVCAR-3 ovarian
  GI50: 0.1 µM
  TGI: > 9.25 µM
BT-549 breast
  GI50: 0.127 µM
  TGI: 0.693 µM
SF-539 CNS
  GI50: 0.197 µM
  TGI: > 9.25 µM
SF-295 CNS
  GI50: 0.223 µM
  TGI: > 9.25 µM
MALME-3M melanoma
  GI50: 0.175 µM
  TGI: 5.42 µM
T-47D breast
  GI50: 0.0374 µM
  TGI: > 9.25 µM
MCF7 breast
  GI50: 0.0409 µM
  TGI: > 9.25 µM
K-562 leukemia
  GI50: 0.0388 µM
  TGI: > 9.25 µM
NCI-H522 lung
  GI50: 0.0976 µM
  TGI: 1.29 µM
MOLT-4 leukemia
  GI50: 0.0377 µM
  TGI: 1.62 µM
HL-60(TB) leukemia
  GI50: 0.0984 µM
  TGI: 0.572 µM
SK-OV-3 ovarian
  GI50: 0.64 µM
  TGI: > 9.25 µM
HS 578T breast
  GI50: 0.205 µM
  TGI: 5.57 µM
UACC-257 melanoma
  GI50: 0.276 µM
  TGI: > 9.25 µM
KM12 colon
  GI50: 0.0525 µM
  TGI: > 9.25 µM
SNB-19 CNS
  GI50: 0.274 µM
  TGI: > 9.25 µM
MDA-MB-231 breast
  GI50: 0.208 µM
  TGI: 2.42 µM
HOP-92 NSCLC
  GI50: 0.128 µM
  TGI: 0.765 µM
DU-145 prostate
  GI50: 0.485 µM
  TGI: > 9.25 µM
SK-MEL-2 melanoma
  GI50: 0.238 µM
  TGI: 0.812 µM
U251 CNS
  GI50: 0.061 µM
  TGI: > 9.25 µM
NCI-H226 lung
  GI50: 0.163 µM
  TGI: 2.3 µM
A549 NSCLC
  GI50: 0.277 µM
  TGI: > 9.25 µM
TK-10 renal
  GI50: 0.386 µM
  TGI: > 9.25 µM
OVCAR-8 ovarian
  GI50: 0.128 µM
  TGI: > 9.25 µM
